One data set addresses T1, human H3 receptor (Homo sapiens, UniProt Q9Y5N1).
T1 construct: expressed in transfected cells; membrane preparation
In words: Human H3 radioligand binding ([3H]-N-alpha-methylhistamine, SPA). The settings on record: membranes of CHO cells expressing human H3 receptor; [3H]-N-alpha-methylhistamine about 1 nM. As for the experimental part: (§1) Methods: CHO cells stably expressing the human H3 receptor (GenBank: NM_007232) were harvested and cell pellets were frozen (−80° C.). Cell pellets were resuspended in 5 mM Tris-HCl, pH 7.5 with […] and a cocktail of protease inhibitors (Complete Protease Inhibitior Tablets, Roche Diagnostics). Cells were disrupted using a polytron cell homogenizer and the suspension was centrifuged at 1000×g for 10 minutes at 4° C. The pellet was discarded and the supernatant centrifuged at 40,000×g for 30 min at 4° C. This membrane pellet was washed in membrane buffer containing 50 mM Tris-HCl, pH 7.5 with 0.6 mM EDTA, 5 mM MgCl2 and protease inhibitors, recentrifuged as above and the final pellet resuspended in membrane buffer plus 250 mM sucrose and frozen at −80° C.
(§2) Radioligand Binding. Membranes were resuspended in 50 mM Tris HCl (pH 7.4), 5 mM MgCl2, 0.1% BSA. The membrane suspensions (10 μg protein per well) were incubated in a 96 well microtiter plate with [^3H]-N-alpha-methylhistamine (approximately 1 nM final concentration), test compounds at various concentrations (0.01 nM-30 μM) and scintillation proximity beads (Perkin Elmer, FlashBlueGPCR Scintillating Beads) in a final volume of 80 μl for 4 hours at room temperature, protected from light. Non-specific binding was determined in the presence of 10 μM clobenpropit. Radioligand bound to receptor, and therefore in proximity to the scintillation beads, was measured using a MicroBeta scintillation counter.

Data set [1] has as its target T2, rat histamine H3 receptor (Rattus norvegicus, UniProt Q9QYN8).
T2 construct: encoding the entire 445-amino-acid rat histamine H3 receptor; expressed in transfected cells; membrane preparation
Kind of data set: Rat H3 radioligand binding ([3H]-N-alpha-methylhistamine, SPA). The settings on record: membranes of CHO-A3 cells expressing rat H3 receptor; [3H]-N-alpha-methylhistamine about 1 nM.
Text: as §1, with “Cell line development and membrane preparation. The rat” for “Methods: CHO cells stably expressing the human”, “cDNA was PCR amplified from reverse-transcribed RNA pooled from rat thalamus, hypothalamus, striatum and prefrontal cortex with a sequence corresponding to by #338-1672 of Genbank file #NM_053506, encoding the entire 445-amino-acid rat histamine H3 receptor. This was engineered into the pIRES-neo3 mammalian expression vector, which was stably transfected into the CHO-A3 cell line (Euroscreen, Belgium), followed by clonal selection by limiting dilution. Cells” for “(GenBank: NM_007232)”
as §2

Results on 15 compounds are retold here after US8524713B2, “Substituted spirocyclic piperidine derivatives as histamine-3 (H3) receptor ligands” (Cephalon, Inc, priority 2008, dated 2013).

pKi: −log10 of the molar value.

In general, pKi refers to the negative decadic logarithm of the Ki, by convention in mol/L. A high value points to a small Ki. What is called melting point is the temperature, or range, at which the solid turns liquid.

T2 sequence (Q9QYN8 whole entry): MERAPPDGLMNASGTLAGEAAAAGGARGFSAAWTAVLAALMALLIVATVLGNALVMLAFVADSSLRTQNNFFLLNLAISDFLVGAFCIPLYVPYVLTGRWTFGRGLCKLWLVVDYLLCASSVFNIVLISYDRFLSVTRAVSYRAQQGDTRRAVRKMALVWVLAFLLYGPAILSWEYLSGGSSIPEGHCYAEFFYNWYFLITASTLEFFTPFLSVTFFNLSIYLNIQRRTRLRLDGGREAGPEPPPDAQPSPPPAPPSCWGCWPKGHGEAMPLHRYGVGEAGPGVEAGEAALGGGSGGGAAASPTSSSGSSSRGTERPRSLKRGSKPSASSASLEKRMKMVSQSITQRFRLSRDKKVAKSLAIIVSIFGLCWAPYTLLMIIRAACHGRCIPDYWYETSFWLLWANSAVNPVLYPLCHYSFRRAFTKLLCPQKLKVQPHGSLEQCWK
T1 sequence (Q9Y5N1 whole entry): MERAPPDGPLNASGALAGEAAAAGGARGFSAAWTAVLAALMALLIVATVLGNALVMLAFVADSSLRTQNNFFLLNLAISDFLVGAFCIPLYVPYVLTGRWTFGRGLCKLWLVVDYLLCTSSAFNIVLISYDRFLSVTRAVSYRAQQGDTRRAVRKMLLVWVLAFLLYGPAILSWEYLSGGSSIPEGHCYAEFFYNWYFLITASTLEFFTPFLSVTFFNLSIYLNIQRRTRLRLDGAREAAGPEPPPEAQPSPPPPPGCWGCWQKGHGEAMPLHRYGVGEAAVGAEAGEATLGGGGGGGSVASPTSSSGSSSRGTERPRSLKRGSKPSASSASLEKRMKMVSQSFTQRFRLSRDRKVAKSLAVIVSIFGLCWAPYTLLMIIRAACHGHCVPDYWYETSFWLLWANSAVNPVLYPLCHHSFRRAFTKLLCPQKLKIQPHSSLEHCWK

In turn, `CC1CC(=O)NN=C1c1ccc2c(c1)CCC1(CCN(C3CCC3)CC1)O2` (stereo not drawn) [Example 12, 1′-Cyclobutyl-6-(5-methyl-4,5-dihydro-2H-pyridazin-3-one-6-yl)-spiro[3,4-dihydrobenzopyran-2,4′-piperidine]] had a melting point of 207 to 209 °C. At human H3 receptor, the pKi is above 6.70. The compound also had a pKi in data set [1] above 6.70.

For `Cc1cc(=O)[nH]nc1-c1ccc2c(c1)CCC1(CCN(C3CCC3)CC1)O2` [Example 13, 1′-Cyclobutyl-6-(5-methyl-2H-pyridazin-3-one-6-yl)-spiro[3,4-dihydrobenzopyran-2,4′-piperidine]], the melting point was 270 to 272 °C. The same compound had a pKi on human H3 receptor above 6.70. The same compound had a negative-log Ki (pKi) in data set [1] above 6.70.

The compound `CC(C)N1CCC2(CCc3cc(C4=NNC(=O)C(C)(C)C4)ccc3O2)CC1` [Example 14] came in with a melting point of 210 to 213 °C. For the same compound, the pKi at human H3 receptor is above 6.70. This compound also had a negative-log Ki (pKi) in data set [1] above 6.70.

As for `Clc1ccc(-c2ccc3c(c2)CC2(CCN(C4CCC4)CC2)O3)nn1` [Example 15, 1′-Cyclobutyl-5-(6-chloropyridazin-3-yl)spiro[benzofuran-2(3H)-4′-piperidine]], the melting point lay in the range of 193 to 194 °C. The compound also showed a pKi on human H3 receptor above 6.70. In data set [1], this compound gave a negative logarithm of the Ki (pKi) above 6.70.

With `O=c1ccc(-c2ccc3c(c2)CC2(CCN(C4CCC4)CC2)O3)n[nH]1` [Example 16, 1′-Cyclobutyl-5-(6-oxo-1,6-dihydropyridazin-3-yl) spiro[benzofuran-2(3H)-4′-piperidine]], the melting point fell in the range of 227 to 228 °C. The pKi on human H3 receptor is above 6.70. In data set [1], the pKi was above 6.70.

Take `O=c1ccc(Oc2ccc3c(c2)CCC2(CCN(C4CCC4)CC2)O3)n[nH]1` [Example 18]: the melting point fell in the range of 233 to 235 °C. This compound showed a pKi on human H3 receptor above 6.70. For the same compound, the pKi in data set [1] was above 6.70.

Consider `O=c1cc(-c2ccc3c(c2)CCC2(CCN(C4CCC4)CC2)O3)cn[nH]1` [Example 19], for which the melting point is 216 to 219 °C. On human H3 receptor, this compound had a negative-log Ki (pKi) above 6.70. For the same compound, in data set [1], the pKi was above 6.70.

`Cn1nc(-c2ccc3c(c2)CCC2(CCN(C4CCC4)CC2)O3)ccc1=O` [Example 20] gave a melting point of 147 to 149 °C. Also, the pKi on human H3 receptor is above 6.70. For the same compound, in data set [1], the pKi was above 6.70.

In turn, `O=c1ccc(-c2ccc3c(c2)CCC2(CCN(C4CCC4)CC2)O3)n[nH]1` [Example 21] showed a melting point of 273 to 275 °C. Further, the pKi at human H3 receptor was above 6.70. Besides, in data set [1], the pKi is above 6.70.

For `Cn1nc(-c2ccc3c(c2)COC2(CCN(C4CCC4)CC2)O3)ccc1=O` [Example 27], the melting point fell in the range of 185 to 187 °C. At human H3 receptor, this compound had a negative logarithm of the Ki (pKi) above 6.70. This compound showed a pKi in data set [1] above 6.70.

As to `O=c1ccc(-c2ccc3c(c2)COC2(CCN(C4CCC4)CC2)O3)n[nH]1` [Example 28], the melting point was in the range of 273 to 275 °C. Moreover, the pKi on human H3 receptor was above 6.70. For the same compound, in data set [1], the pKi was above 6.70.

`Cc1cc2c(cc1-c1ccc(=O)[nH]n1)COC1(CCN(C3CCC3)CC1)O2` [Example 29] registered a melting point of 230 to 232 °C. Moreover, at human H3 receptor, the pKi was 6.00 to 6.70. This compound gave a pKi in data set [1] of 6.00 to 6.70.

`O=c1[nH]nc(-c2ccc3c(c2)COC2(CCN(C4CCC4)CC2)O3)c2ccccc12` [Example 32] registered a melting point of 258 to 259 °C. On human H3 receptor, this compound showed a pKi above 6.70. In data set [1], this compound gave a pKi above 6.70.

Compound `O=c1cc(-c2ccccc2)c(-c2ccc3c(c2)COC2(CCN(C4CCC4)CC2)O3)n[nH]1` [Example 33] gave a melting point of 260 to 262 °C. The same compound had a pKi on human H3 receptor above 6.70. The pKi in data set [1] was above 6.70.

Compound `O=C1CCC(c2ccc3c(c2)COC2(CCN(C4CCC4)CC2)O3)=NN1` [Example 36] had a melting point of 192 to 194 °C. This compound gave a pKi at human H3 receptor above 6.70. The pKi in data set [1] was above 6.70.
